Values after ≈ are worked out from the molar mass of the structure shown.
Key:
[1] = molecular target: PI3-kinase p110-delta/p85-alpha (Homo sapiens, UniProt O00329); test: Inhibition of recombinant human PI3K p110delta/p85alpha using phosphatidylinositol 4,5-bisphosphate as substrate preincubated for 15 mins followed by addition of ATP and measured after 30 mins by fluorescence polarisation assay; type: protein-complex assay
[2] = molecular target: T1, Phosphatidylinositol 4,5-bisphosphate 3-kinase catalytic subunit delta isoform (Homo sapiens, UniProt O00329); test: Inhibition of recombinant human N-terminal Myr signal and C-terminal Flag-tagged PI3K p110delta expressed in rat Rat1 cells; type: cell-based
T1 sequence (O00329 whole entry): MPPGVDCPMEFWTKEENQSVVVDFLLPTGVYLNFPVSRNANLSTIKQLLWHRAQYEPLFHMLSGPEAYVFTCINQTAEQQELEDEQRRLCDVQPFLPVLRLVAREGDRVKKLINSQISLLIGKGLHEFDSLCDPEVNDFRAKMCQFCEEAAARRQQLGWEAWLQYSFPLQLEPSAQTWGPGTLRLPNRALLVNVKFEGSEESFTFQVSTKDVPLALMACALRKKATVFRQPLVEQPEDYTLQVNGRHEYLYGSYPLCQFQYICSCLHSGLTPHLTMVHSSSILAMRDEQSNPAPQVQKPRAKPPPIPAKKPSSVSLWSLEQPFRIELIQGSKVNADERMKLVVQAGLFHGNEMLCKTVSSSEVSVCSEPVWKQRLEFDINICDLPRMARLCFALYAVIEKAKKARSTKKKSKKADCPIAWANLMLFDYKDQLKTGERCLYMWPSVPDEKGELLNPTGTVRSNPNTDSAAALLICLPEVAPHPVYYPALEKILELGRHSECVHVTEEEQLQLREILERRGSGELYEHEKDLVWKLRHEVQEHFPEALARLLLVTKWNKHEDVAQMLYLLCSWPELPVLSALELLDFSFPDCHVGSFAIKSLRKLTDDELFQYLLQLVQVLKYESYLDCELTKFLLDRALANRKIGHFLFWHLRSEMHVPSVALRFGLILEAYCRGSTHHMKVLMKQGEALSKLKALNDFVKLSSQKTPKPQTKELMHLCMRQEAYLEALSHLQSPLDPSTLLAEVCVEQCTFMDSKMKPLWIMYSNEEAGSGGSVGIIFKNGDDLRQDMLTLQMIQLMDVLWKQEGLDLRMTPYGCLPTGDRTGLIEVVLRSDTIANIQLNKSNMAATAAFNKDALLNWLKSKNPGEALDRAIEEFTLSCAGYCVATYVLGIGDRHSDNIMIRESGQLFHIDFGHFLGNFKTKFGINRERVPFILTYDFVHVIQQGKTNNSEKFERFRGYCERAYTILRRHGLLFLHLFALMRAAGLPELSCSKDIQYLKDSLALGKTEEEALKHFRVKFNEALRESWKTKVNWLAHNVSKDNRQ

[3] = Distribution coefficient, logD of compound at pH 7.4; type: physicochemical; conditions: octanol/water
[4] = Apparent intrinsic clearance in human liver microsomes; type: ADME, Microsome; conditions: read-out: CLH(app)
[5] = molecular target: Phosphatidylinositol 4,5-bisphosphate 3-kinase catalytic subunit alpha isoform (Homo sapiens, UniProt P42336); test: Inhibition of recombinant human N-terminal Myr signal and C-terminal Flag-tagged PI3K p110alpha expressed in rat Rat1 cells; type: cell-based
Chain of Phosphatidylinositol 4,5-bisphosphate 3-kinase catalytic subunit alpha isoform (P42336 whole entry, canonical isoform): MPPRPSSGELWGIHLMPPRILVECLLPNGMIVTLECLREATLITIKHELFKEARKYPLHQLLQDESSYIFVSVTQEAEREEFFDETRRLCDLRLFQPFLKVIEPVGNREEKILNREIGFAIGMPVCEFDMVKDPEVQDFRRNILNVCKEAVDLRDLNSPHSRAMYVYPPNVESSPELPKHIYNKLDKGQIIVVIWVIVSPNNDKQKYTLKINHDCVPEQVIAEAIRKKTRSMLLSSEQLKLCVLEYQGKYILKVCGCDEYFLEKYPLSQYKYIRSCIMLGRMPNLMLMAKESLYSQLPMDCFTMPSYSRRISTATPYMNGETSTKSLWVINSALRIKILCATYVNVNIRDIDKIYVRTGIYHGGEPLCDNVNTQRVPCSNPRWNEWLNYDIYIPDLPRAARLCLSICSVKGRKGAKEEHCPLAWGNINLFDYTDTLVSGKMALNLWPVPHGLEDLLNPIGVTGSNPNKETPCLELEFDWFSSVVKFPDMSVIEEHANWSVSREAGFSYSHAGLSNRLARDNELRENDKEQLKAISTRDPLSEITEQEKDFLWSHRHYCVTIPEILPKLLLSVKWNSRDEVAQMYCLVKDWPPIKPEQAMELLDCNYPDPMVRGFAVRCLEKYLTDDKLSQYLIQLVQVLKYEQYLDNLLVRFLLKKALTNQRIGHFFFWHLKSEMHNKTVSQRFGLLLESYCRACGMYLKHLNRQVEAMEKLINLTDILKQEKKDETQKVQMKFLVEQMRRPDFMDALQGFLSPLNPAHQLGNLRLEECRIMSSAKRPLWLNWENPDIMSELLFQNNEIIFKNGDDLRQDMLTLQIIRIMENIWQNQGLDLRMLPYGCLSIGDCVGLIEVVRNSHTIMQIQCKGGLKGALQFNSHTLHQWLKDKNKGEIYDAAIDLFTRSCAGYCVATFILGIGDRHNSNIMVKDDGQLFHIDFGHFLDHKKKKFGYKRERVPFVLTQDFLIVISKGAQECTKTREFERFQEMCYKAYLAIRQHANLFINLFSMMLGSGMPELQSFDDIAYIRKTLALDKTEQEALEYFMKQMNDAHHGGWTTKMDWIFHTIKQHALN

PI3K p110 beta/p85 alpha = PI3K p110 beta/p85 alpha (Homo sapiens, UniProt P42338); test: Inhibition of recombinant human PI3K p110beta/p85alpha using phosphatidylinositol 4,5-bisphosphate as substrate preincubated for 15 mins followed by addition of ATP and measured after 30 mins by fluorescence polarisation assay; type: protein-complex assay
Chain of PI3K p110 beta/p85 alpha (P27986 whole entry): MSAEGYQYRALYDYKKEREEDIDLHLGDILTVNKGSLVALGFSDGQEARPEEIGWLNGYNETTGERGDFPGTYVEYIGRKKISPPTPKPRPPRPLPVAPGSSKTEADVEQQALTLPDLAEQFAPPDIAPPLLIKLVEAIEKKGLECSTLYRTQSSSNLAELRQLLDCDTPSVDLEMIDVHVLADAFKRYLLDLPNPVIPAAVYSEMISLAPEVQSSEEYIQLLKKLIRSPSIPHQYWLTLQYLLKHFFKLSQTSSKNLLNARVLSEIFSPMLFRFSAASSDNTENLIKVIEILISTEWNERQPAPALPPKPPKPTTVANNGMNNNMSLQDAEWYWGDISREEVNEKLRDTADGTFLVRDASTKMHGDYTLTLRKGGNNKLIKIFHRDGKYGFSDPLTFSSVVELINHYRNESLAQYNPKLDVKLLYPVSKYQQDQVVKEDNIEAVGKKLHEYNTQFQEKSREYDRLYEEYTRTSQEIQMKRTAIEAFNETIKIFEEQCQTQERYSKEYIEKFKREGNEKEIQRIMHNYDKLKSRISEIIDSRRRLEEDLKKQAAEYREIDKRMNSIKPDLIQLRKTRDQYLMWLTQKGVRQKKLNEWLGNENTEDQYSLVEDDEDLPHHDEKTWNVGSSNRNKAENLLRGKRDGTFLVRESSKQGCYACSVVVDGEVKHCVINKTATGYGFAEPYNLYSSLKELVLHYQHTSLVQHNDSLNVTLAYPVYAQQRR
Chain of PI3K p110 beta/p85 alpha (P42338 whole entry): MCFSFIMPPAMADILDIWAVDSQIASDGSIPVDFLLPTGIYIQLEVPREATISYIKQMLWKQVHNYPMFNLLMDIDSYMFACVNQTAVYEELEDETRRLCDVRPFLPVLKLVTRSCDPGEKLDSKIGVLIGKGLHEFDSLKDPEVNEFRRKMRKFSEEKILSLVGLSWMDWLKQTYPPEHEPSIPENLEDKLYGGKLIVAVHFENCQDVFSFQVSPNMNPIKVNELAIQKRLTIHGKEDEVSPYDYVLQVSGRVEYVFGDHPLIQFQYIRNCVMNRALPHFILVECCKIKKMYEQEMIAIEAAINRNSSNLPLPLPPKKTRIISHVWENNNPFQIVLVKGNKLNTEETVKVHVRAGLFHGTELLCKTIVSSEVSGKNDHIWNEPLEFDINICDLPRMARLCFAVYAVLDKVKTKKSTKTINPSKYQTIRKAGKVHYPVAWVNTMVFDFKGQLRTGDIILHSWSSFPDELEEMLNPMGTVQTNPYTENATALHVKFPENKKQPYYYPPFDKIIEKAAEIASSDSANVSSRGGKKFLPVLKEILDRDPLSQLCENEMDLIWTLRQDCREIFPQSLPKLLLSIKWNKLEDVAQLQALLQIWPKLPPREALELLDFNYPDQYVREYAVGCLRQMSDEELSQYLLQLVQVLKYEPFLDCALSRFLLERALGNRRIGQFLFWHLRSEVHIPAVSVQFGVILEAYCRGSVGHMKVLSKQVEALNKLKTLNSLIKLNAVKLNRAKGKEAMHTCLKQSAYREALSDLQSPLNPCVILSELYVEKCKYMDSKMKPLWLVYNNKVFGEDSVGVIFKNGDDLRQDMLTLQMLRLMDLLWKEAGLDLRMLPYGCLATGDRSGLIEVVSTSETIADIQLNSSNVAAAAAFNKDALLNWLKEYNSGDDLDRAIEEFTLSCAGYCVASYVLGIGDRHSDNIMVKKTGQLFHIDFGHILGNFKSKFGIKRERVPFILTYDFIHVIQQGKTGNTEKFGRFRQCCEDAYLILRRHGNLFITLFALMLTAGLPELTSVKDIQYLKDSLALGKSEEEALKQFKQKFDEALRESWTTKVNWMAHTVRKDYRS

[6] = Passive permeability of compound in RRCK cells; type: ADME, cell-based, Canis lupus familiaris, MDCKII-LE; conditions: dog, MDCK; read-out: permeability
[7] = molecular target: Phosphatidylinositol 4,5-bisphosphate 3-kinase catalytic subunit beta isoform (Homo sapiens, UniProt P42338); test: Inhibition of recombinant human N-terminal Myr signal and C-terminal Flag-tagged PI3K p110beta expressed in rat Rat1 cells; type: cell-based
Chain of Phosphatidylinositol 4,5-bisphosphate 3-kinase catalytic subunit beta isoform (P42338 whole entry, canonical isoform): as the sequence (P42338 whole entry) above

[8] = Kinetic solubility of compound; type: physicochemical; conditions: read-out: Kinetic_solubility
[9] = molecular target: PI3-kinase p110-alpha/p85-alpha (Homo sapiens, UniProt P42336); test: Inhibition of recombinant human full-length PI3K p110alpha/p85alpha (322 to 600) expressed in baculovirus infected Sf21 cells using phosphatidylinositol 4,5-bisphosphate as substrate preincubated for 15 mins followed by addition of ATP and measured after 30 mins by fluorescence polarisation assay
Chain of PI3-kinase p110-alpha/p85-alpha (P27986 whole entry): as the sequence (P27986 whole entry) above
Chain of PI3-kinase p110-alpha/p85-alpha (P42336 whole entry): as the sequence (P42336 whole entry, canonical isoform) above

Rat1 [10] = test: Selectivity index, ratio of IC50 for recombinant human N-terminal Myr signal and C-terminal Flag-tagged PI3K p110beta to IC50 for recombinant human N-terminal Myr signal and C-terminal Flag-tagged PI3K p110alpha expressed in rat Rat1 cells; type: cell-based
Rat1 [11] = test: Selectivity index, ratio of IC50 for recombinant human N-terminal Myr signal and C-terminal Flag-tagged PI3K p110delta to IC50 for recombinant human N-terminal Myr signal and C-terminal Flag-tagged PI3K p110alpha expressed in rat Rat1 cells; type: cell-based
Homo sapiens [12] = organism: Homo sapiens; test: Selectivity index, ratio of Ki for recombinant human PI3K p110beta/p85alpha to Ki for recombinant human full-length PI3K p110alpha/p85alpha (322 to 600) using phosphatidylinositol 4,5-bisphosphate as substrate
Homo sapiens [13] = organism: Homo sapiens; test: Selectivity index, ratio of Ki for recombinant human PI3K p110delta/p85alpha to Ki for recombinant human full-length PI3K p110alpha/p85alpha (322 to 600) using phosphatidylinositol 4,5-bisphosphate as substrate

Chain of PI3-kinase p110-delta/p85-alpha (P27986 whole entry, one chain of several, canonical isoform): as the sequence (P27986 whole entry) above

Structure (SMILES)	Ki [1] [nM]	IC50 [2] [nM]	logD [3]	microsomal CLint [4] [µL/min/mg]	IC50 [5] [nM]	Ki (PI3K p110 beta/p85 alpha) [nM]	Papp [6] [×10⁻⁶ cm/s]	IC50 [7] [nM]	solubility kinetic [8] [µM]	Ki [9] [nM]	Ratio IC50 (Rat1 [10])	Ratio IC50 (Rat1 [11])	Ratio Ki (Homo sapiens [12])	Ratio Ki (Homo sapiens [13])
CS(=O)(=O)N1CC[C@](CO)(Nc2cc(-c3cnc(N)nc3)nc(N3CCOCC3)n2)C1	< 0.28	> 10000	0.79	< 8	1300	11	0.22	> 10000						
CS(=O)(=O)N1CC[C@H](N2CCc3c(-c4cnc(N)nc4)nc(N4CCOCC4)nc32)C1	4.5		1.3	< 8		16	18		61 (≈ 27.2 µg/mL)	0.15				
COC(=O)N1CC[C@](CO)(Nc2nc(N3CCOCC3)nc(-c3cnc(N)nc3)c2F)C1	< 0.28	300	1.6	< 8	47	5	6.2	360	42 (≈ 18.8 µg/mL)	< 0.018				
C[C@]1(N2CCc3c(-c4cnc(N)nc4)nc(N4CCOCC4)nc32)CCN(S(C)(=O)=O)C1	0.26	76	1.6	36	34	9.1	26	150	540 (≈ 249 µg/mL)	< 0.029				
COC(=O)N1CC[C@](C)(N2CCc3c(-c4cnc(N)nc4)nc(N4CCOCC4)nc32)C1	< 0.28	13	2.6	29	5	0.79	27	45	490 (≈ 216 µg/mL)	< 0.023				
Nc1ncc(-c2nc(N3CCOCC3)nc3c2CCN3[C@H]2CCNC2)cn1	40		-0.74	13		17	1.9		430 (≈ 158 µg/mL)	2.1				
CC(C)C(=O)N1CC[C@](CO)(Nc2cc(-c3cnc(N)nc3)nc(N3CCOCC3)n2)C1	< 0.28	> 10000	1.4	17		19	0.19	> 10000	540 (≈ 239 µg/mL)					
COC(=O)N1CC[C@H](N2CCc3c(-c4cnc(N)nc4)nc(N4CCOCC4)nc32)C1	9.6		1.9	< 8		36	20		56 (≈ 23.9 µg/mL)					
CC(C)(C)OC(=O)N1CC[C@](C)(Nc2cc(-c3cnc(N)nc3)nc(N3CCOCC3)n2)C1	5.1	460	3.8	110	110	68	11	5000	270 (≈ 123 µg/mL)					
CNS(=O)(=O)N1CC[C@](C)(N2CCc3c(-c4cnc(N)nc4)nc(N4CCOCC4)nc32)C1	< 0.28	44	1.9	20	27	4.9	24	170	510 (≈ 243 µg/mL)	< 0.018				
CC(C)(O)C(=O)N1CC[C@](C)(N2CCc3c(-c4cnc(N)nc4)nc(N4CCOCC4)nc32)C1	6.7	150	2	16	53	46	25	1000	460 (≈ 216 µg/mL)	0.03				
Nc1ncc(-c2ccnc(N3CCOCC3)n2)cn1	81		1.5			15	28		210 (≈ 54.2 µg/mL)					
CNC(=O)N1CC[C@H](N2CCc3c(-c4cnc(N)nc4)nc(N4CCOCC4)nc32)C1	3.7		1.3	< 8		24	6.1		390 (≈ 166 µg/mL)	0.58				
COC(=O)N1CC[C@](CO)(Nc2cc(-c3cnc(N)nc3)nc(N3CCOCC3)n2)C1	< 0.28	2300	1.5	13	91	1.7	1	1800	19 (≈ 8.18 µg/mL)					
CC(=O)N1CC[C@@](C)(N2CCc3c(-c4cnc(N)nc4)nc(N4CCOCC4)nc32)C1	1.2	74	1.6	< 8	35	6.7	16	95	520 (≈ 221 µg/mL)	0.078				
CNC(=O)N1CC[C@](C)(N2CCc3c(-c4cnc(N)nc4)nc(N4CCOCC4)nc32)C1	0.72	110	1.7	< 11	73	24	13	410	460 (≈ 202 µg/mL)	0.084				
CC(C)C(=O)N1CC[C@](C)(N2CCc3c(-c4cnc(N)nc4)nc(N4CCOCC4)nc32)C1	< 0.28	17	2.4	46	6.9	17	36	260	500 (≈ 226 µg/mL)	< 0.018	37	3		
CC(=O)N1CC[C@H](N2CCc3c(-c4cnc(N)nc4)nc(N4CCOCC4)nc32)C1	22		1.1	< 8		20	13		530 (≈ 218 µg/mL)				17	19
CNS(=O)(=O)N1CC[C@H](N2CCc3c(-c4cnc(N)nc4)nc(N4CCOCC4)nc32)C1	4.5		1.4	< 11	130	16	16		380 (≈ 175 µg/mL)	0.12			125	37
Nc1ncc(-c2cc(N[C@@]3(CO)CCN(C(=O)OCC(F)F)C3)nc(N3CCOCC3)n2)cn1	< 0.28	1000	1.7	17	52	4	3.9	1900	9.9 (≈ 4.76 µg/mL)					
CC(C)(C)OC(=O)N1CC[C@](CO)(Nc2cc(-c3cnc(N)nc3)nc(N3CCOCC3)n2)C1	2.1	1200	2.7	140		54	18	4600	460 (≈ 217 µg/mL)					
CC(C)(N)C(=O)N1CC[C@](C)(N2CCc3c(-c4cnc(N)nc4)nc(N4CCOCC4)nc32)C1	2.5	120	0.4	< 9	25	13	4.2	330	460 (≈ 215 µg/mL)	0.023	13	5		

Reference: ChEMBL document CHEMBL4706640, “Structure-Based Drug Design and Synthesis of PI3Kα-Selective Inhibitor (PF-06843195)” (J Med Chem, 2021)
